Measurements as given in paper PMC5854716, “Synthesis, molecular docking, ctDNA interaction, DFT calculation and evaluation of antiproliferative and anti-Toxoplasma gondii activities of 2,4-diaminotriazine-thiazole derivatives” (Medicinal Chemistry Research, 2018).
Converted amounts (≈) assume the structure as drawn.

Key:
VERO cells = experiment: Cell viability assay (MTT), VERO; type: cell-based, Cercopithecus aethiops; conditions: concentration for 30% proliferation inhibition, 24 h
Description: (§1) The epithelial cell line VERO (ATCC-Catalog No. CCL-81^TM), derived from the kidney of the African green monkey, Cercopithecus aethiops and fibroblast cell line L-929 (ATCC-Catalog No. CCL-1^TM), derived from Mus musculus (http://www.atcc.org) were grown in Iscoves’s Modified Dulbecco’s Medium (IMDM) supplemented with 10% (v/v) fetal bovine serum (FBS), plus 2 mM L-glutamine, 100 U/ml penicillin, 100.00 µg/ml streptomycin, 5 × 10^−5 M 2-mercaptoethanol and maintained at 37 °C in a 10% CO2 atmosphere. Subcultures were performed via enzymatic cell dissociation in 0.25% trypsin. After dissociation, the cells were placed in culture medium at 4 °C with 10% FBS to inhibit the action of trypsin. The isolated cells were centrifuged for 10 min at 1000×g at 4 °C, and the cells were grown in new bottles. This procedure was repeated when cells reached a confluence of ~90%. All commercial reactants and solvents were purchased from either Sigma-Aldrich Laborchemikalien GmbH (Dzitko et al. [2014]).
(§2) Suspensions of the compounds 4a–l were freshly prepared (5 mg/ml DMSO) before the cells were exposed, and diluted to appropriate concentrations; 0.9, 1.8, 3.9, 7.8, 15.6, 31.2, 62.5, and 125.00 μg/ml with the culture medium. Cells treated with 2.5% DMSO-solvent served as a control in each experiment.
(§3) The effects of tested compounds on the viability of mouse fibroblasts L929 and […] VERO cells were evaluated using the MTT assay. The MTT assay was used according to international standards: ISO 10993-5:2009 (Tests for in vitro cytotoxicity; http://www.iso.org/iso/catalogue_detail.htm? csnumber = 36406). L929 and VERO cells were plated into 96-well plates at a density of 1.0 × 10^4/100 μl/well in culture medium and allowed to attach for 24 h before treatment. Afterwards, culture medium in the plates was replaced by 100 μl compounds suspension at concentration of 0–125 μg/ml and the cells were exposed for 24 h. Then 1 mg/ml MTT (50 μl/well) was added to each well and incubated at 37 °C, 10 % CO2 for 2 h. Mitochondrial dehydrogenases of viable cells reduce the yellowish water-soluble MTT to water-insoluble formazan crystals, which were solubilized with dimethyl sulfoxide (DMSO). The cell culture medium was aspirated cautiously, after which 150 μl DMSO was added to each well and mixed thoroughly. Optical density (OD) was read on the ELISA reader (Multiskan EX, Labsystems; http://www.mtxlsi.com/multiskan_EX.htm) at 550 nm. The results were expressed as percentage viability compared with the treated 2.5% DMSO controls. All experiments were performed in triplicate.

mouse L929 fibroblast = experiment: Cell viability assay (MTT), L929; type: cell-based; conditions: concentration for 30% proliferation inhibition, 24 h
Description: as §1, §2, §3

[1] = test system: Toxoplasma gondii BK strain; experiment: T. gondii tachyzoite intracellular proliferation in VERO host cells ([3H]uracil incorporation); type: cell-based; conditions: Toxoplasma gondii, VERO host cells; for IC50: GraphPad Prism curves, read-out: IC50 (50% inhibition of T. gondii proliferation in vitro)
Description: as §1, §2
Stock solutions of the Sulfadiazine (100 mg/ml 1 N NaOH; Catalog No. S8626) was freshly prepared before each experiment, and diluted to appropriate concentrations: 5.00, 25.00, 50.00, 125.00, 250.00, 500.00, 1250.00, and 2500.00 μg/ml, respectively in IMDM complete medium. All commercial reactants and solvents were purchased from either Sigma-Aldrich Laborchemikalien GmbH.
Tachyzoites of T. gondii, BK strain, were maintained in female C57BL/6 (H-2^b) and BALB/c (H-2^d) mice (with genetically determined high and low susceptibility, respectively to Toxoplasma infection) via serial intraperitoneal inoculation of 10^5–10^6 parasites per mouse in phosphate-buffered saline (PBS). After 48 to 96 h, parasites were harvested via peritoneal lavage using PBS, pH 7.2, and centrifuged at 200×g for 5 min to remove blood cells and cell debris. The supernatant containing tachyzoites was collected and centrifuged again at 2000×g for 15 min. The final pellet was resuspended in IMDM, quantified in a Burker’s chamber, and used in experimental assays. Inbred mice were kept under standard laboratory conventional conditions. All experimental procedures were conducted according to guidelines of the 9. Local Ethics Commission for Experiments on Animals in Lodz.
VERO, (2 × 10^4 cells/100 µl/well) were grown in complete medium (IMDM) on 96-well plates. After 24 h incubation, a medium was removed and then T. gondii […] tachyzoites, suspended in culture medium supplemented with 0.9–125.00 μg/ml diaminotriazines 4a–l and as a control-sulfadiazine (5.0–2500.0 μg/ml), were added (2 × 10^5 tachyzoites/200 µl/well) to the cell monolayers. After subsequent 48 h incubation 1 µCi/well of [^3H] uracil (Moravek Biochemicals Inc., Brea, CA, USA) was applied to each microculture for further 18–20 h. The amount of the isotope incorporated into the parasite nucleic acid pool, corresponding to the parasite growth, was measured by liquid scintillation counting with 1450 Microbeta Plus Liquid Scintillation Counter (Wallac Oy, Turku, Finland). The cpms of host cells alone (below 250/microculture) were subtracted from cpms of T. gondii infected microcultures (Dzitko et al. [2014]).

SMILES	CC30 VERO (VERO cells)	CC30 L929 (mouse L929 fibroblast)	activity at 0.9 µg/mL [1]	activity at 1.8 µg/mL [1]	activity at 3.9 µg/mL [1]	activity at 7.8 µg/mL [1]	activity at 15.6 µg/mL [1]	activity at 31.2 µg/mL [1]	activity at 62.5 µg/mL [1]	activity at 125 µg/mL [1]	IC50 [1]
C/C(=N\Nc1nc(-c2ccc(F)cc2)cs1)c1ccc(Nc2nc(N)nc(N)n2)cc1 [Compound 4a, (E)-N^2-(4-(1-(2-(4-(4-fluorophenyl)-1,3-thiazol-2-yl)hydrazinylidene)ethyl)phenyl)-1,3,5-triazine-2,4,6-triamine]	>125.0 µg/mL	>125.0 µg/mL	102%	101%	101%	108%	99.1%	77.6%	34.9%	17.6%	51.6 µg/mL (≈ 119 µM)
C/C(=N\Nc1nc(-c2ccc(Cl)cc2)cs1)c1ccc(Nc2nc(N)nc(N)n2)cc1 [Compound 4b, (E)-N^2-(4-(1-(2-(4-(4-chlorophenyl)-1,3-thiazol-2-yl)hydrazinylidene)ethyl)phenyl)-1,3,5-triazine-2,4,6-triamine]	>125.0 µg/mL	>125.0 µg/mL	100%	106%	101%	98.2%	74.6%	52.2%	26.1%	14.7%	33 µg/mL (≈ 73.1 µM)
C/C(=N\Nc1nc(-c2ccc(C)cc2)cs1)c1ccc(Nc2nc(N)nc(N)n2)cc1 [Compound 4c, (E)-N^2-(4-(1-(2-(4-(4-tolyl)-1,3-thiazol-2-yl)hydrazinylidene)ethyl)phenyl)-1,3,5-triazine-2,4,6-triamine]	>125.0 µg/mL	>125.0 µg/mL	102%	102%	110%	100%	86.2%	58.6%	40.1%	30.9%	51.4 µg/mL (≈ 119 µM)
